Experimental data reported in ChEMBL document CHEMBL5042532, “Discovery of N-(4-(Benzyloxy)-phenyl)-sulfonamide Derivatives as Novel Antagonists of the Human Androgen Receptor Targeting the Activation Function 2” (J Med Chem, 2022).

What was measured:
[1] = test system: NIH3T3; assay: Cytotoxicity against mouse NIH3T3 cells assessed as reduction in cell viability at 100 uM incubated for 4 hrs by MTT assay; type: toxicity, cell-based; settings: nih3t3, 4 h
[2] = biological target: T1, Androgen receptor (Homo sapiens, UniProt P10275); assay: Antagonist activity against human androgen receptor expressed in human LNCap cells trasfected with ARR2PB-eGFP cells incubated for 3 days by fluorescence based AR transcription assay; type: cell-based
T1 sequence (P10275 whole entry): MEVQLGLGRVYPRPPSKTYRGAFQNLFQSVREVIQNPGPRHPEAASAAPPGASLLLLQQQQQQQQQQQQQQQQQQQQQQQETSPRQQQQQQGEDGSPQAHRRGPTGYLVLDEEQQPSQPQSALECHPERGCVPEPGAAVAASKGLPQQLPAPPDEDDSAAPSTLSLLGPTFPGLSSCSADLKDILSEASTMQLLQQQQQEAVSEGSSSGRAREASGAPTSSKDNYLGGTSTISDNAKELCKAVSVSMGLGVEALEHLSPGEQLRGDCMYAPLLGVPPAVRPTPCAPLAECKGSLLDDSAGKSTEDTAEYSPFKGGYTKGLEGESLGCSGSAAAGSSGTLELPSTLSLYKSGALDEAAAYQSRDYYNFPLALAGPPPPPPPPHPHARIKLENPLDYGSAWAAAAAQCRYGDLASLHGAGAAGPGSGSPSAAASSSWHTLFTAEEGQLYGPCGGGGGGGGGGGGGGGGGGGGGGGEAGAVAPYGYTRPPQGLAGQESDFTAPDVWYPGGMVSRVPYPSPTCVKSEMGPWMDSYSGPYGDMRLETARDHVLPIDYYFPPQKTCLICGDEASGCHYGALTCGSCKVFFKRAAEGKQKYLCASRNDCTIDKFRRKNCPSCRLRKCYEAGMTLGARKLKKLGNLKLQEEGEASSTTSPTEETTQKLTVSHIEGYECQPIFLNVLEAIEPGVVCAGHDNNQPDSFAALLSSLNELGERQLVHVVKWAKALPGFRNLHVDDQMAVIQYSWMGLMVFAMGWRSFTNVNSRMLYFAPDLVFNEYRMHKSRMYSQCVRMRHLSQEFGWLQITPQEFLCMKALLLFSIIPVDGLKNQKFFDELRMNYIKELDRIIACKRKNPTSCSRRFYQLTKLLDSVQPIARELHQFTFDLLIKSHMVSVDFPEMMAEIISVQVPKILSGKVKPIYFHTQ

[3] = Clearance in CB17-SCID mouse mouse at 50 mg/kg, iv; type: ADME, organism-based; settings: in vivo
[4] = Half life in CB17-SCID mouse mouse at 50 mg/kg, iv; type: ADME, organism-based; settings: in vivo
[5] = Toxicity in CB17 SCID mouse xenografted with human LNCaP cells assessed as decrease in body weight at 2.5 mg/kg,IT(Intratumoral) administered once in every week for 25 days […]; type: organism-based; settings: in vivo, other, 600 h, time 25 day
[6] = Cmax in CB17-SCID mouse mouse at 50 mg/kg, iv; type: ADME, organism-based; parameters: route intravenous, dose 50 mg/kg; settings: in vivo
[7] = Volume of distribution in CB17-SCID mouse mouse at 50 mg/kg, iv; type: ADME, organism-based; settings: in vivo
[8] = Inhibition of prostate specific antigen expression in human LNCaP cells expressing ARR2PB-eGFP by immunoassay

SMILES | IC50 [2] [µM] | other results
O=S(=O)(Nc1ccc(OCc2ccccc2)cc1)c1ccccc1 | – | Activity [1]: Toxic
CC(=O)N1c2cc(S(=O)(=O)Nc3ccc(OCc4ccccc4)cc3)c(Br)cc2CC1C (stereo not drawn) | > 50 | –
CC1NC(=O)NC(=O)C1S(=O)(=O)Nc1ccc(OCc2ccccc2)cc1 (stereo not drawn) | > 50 | –
O=S(=O)(Cc1ccc(Cl)cc1)Nc1ccc(OCc2ccccc2)cc1 | > 50 | –
Cc1ccc(S(=O)(=O)Nc2ccc(OCc3ccccc3)cc2)cc1 | 11.5 | –
Cc1cc(C)c(S(=O)(=O)Nc2ccc(OCc3ccccc3)cc2)c(C)c1 | > 50 | –
O=[N+]([O-])c1ccc(CS(=O)(=O)Nc2ccc(OCc3ccccc3)cc2)cc1 | > 50 | –
CC(C)CS(=O)(=O)Nc1ccc(OCc2ccccc2)cc1 | > 50 | –
CC(=O)Nc1ccc(S(=O)(=O)Nc2ccc(OCc3ccccc3)cc2)cc1 | > 50 | –
CN(C)S(=O)(=O)Nc1ccc(OCc2ccccc2)cc1 | – | clearance [3]: 366 mL/min/kg; half-life [4]: 1.52 h; Activity [1]: Non-Toxic; Activity [5]: Toxic; Cmax [6]: 890 ng/mL; Vd [7]: 2.99 L/kg
CCOC(=O)c1cn[nH]c1S(=O)(=O)Nc1ccc(OCc2ccccc2)cc1 | > 50 | –
COC(=O)c1sccc1S(=O)(=O)Nc1ccc(OCc2ccccc2)cc1 | > 50 | –
CC(=O)c1ccc(S(=O)(=O)Nc2ccc(OCc3ccccc3)cc2)cc1 | > 50 | –
Cn1c(=O)n(C)c2cc(S(=O)(=O)Nc3ccc(OCc4ccccc4)cc3)ccc21 | > 50 | –
O=S(=O)(Cc1ccccc1)Nc1ccc(OCc2ccccc2)cc1 | – | Activity [1]: Non-Toxic
COc1ccc(CS(=O)(=O)Nc2ccc(OCc3ccccc3)cc2)cc1 | > 50 | –
CNC(=O)c1ccc(N2C(=S)N(c3ccc(C#N)c(C(F)(F)F)c3)C(=O)C2(C)C)cc1F [ENZALUTAMIDE] | – | IC50 [8]: 0.1 µM; Activity [5]: Toxic
